Patent US8952024B2, “Herbicidal pyrimidone derivatives” (E I du Pont de Nemours and Company, priority 2009, dated 2015)

Key:
Assay type in all cases: in vivo
[1] = test system: large crabgrass (Digitaria sanguinalis); assay: Test A pre-/postemergence plant response
How it was run: (§1)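 Formulated test chemicals (non-phytotoxic solvent, surfactant) were sprayed onto soil right after planting and simultaneously onto young plants at one to two leaves, 2 to 10 cm tall. Plants stayed in the greenhouse about ten days; injury was then visually scored against untreated controls, from 0 (no effect) to 100 (complete control).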

[2] = test system: morningglory (Ipomoea spp.); assay: Test A pre-/postemergence plant response
How it was run: as §1

[3] = test system: velvetleaf (Abutilon theophrasti); assay: Test A pre-/postemergence plant response
How it was run: as §1

[4] = test system: wheat (Triticum aestivum); assay: Test A pre-/postemergence plant response
How it was run: as §1

[5] = test system: cocklebur (Xanthium strumarium); assay: Test B pre-/postemergence plant response; details: for Cocklebur plant response rating (0 to 100 scale): 62 g ai/ha, 0 is no effect, 13 to 15 days
How it was run: (§2)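 Seeds sown in loam–sand blend were treated preemergence, and plants at 2–18 cm (1- to 4-leaf stage) in peat-based medium were treated postemergence; compounds were formulated in non-phytotoxic solvent with surfactant. After 13–15 days in greenhouse, response was visually rated against controls, 0 (no effect) to 100 (complete control).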

[6] = test system: downy bromegrass (Bromus tectorum); assay: Test B pre-/postemergence plant response; details: for Bromegrass, Downy plant response rating (0 to 100 scale): 62 g ai/ha, 0 is no effect, 13 to 15 days
How it was run: as §2

[7] = test system: giant foxtail (Setaria faberii); assay: Test B pre-/postemergence plant response; details: for Foxtail, Giant plant response rating (0 to 100 scale): 62 g ai/ha, 0 is no effect, 13 to 15 days
How it was run: as §2

[8] = test system: goosegrass (Eleusine indica); assay: Test B pre-/postemergence plant response; details: for Goosegrass plant response rating (0 to 100 scale): 62 g ai/ha, 0 is no effect, 13 to 15 days
How it was run: as §2

[9] = test system: green foxtail (Setaria viridis); assay: Test B pre-/postemergence plant response; details: for Foxtail, Green plant response rating (0 to 100 scale): 62 g ai/ha, 0 is no effect, 13 to 15 days
How it was run: as §2

kochia (Kochia scoparia) = assay: Test B pre-/postemergence plant response; details: for Kochia plant response rating (0 to 100 scale): 62 g ai/ha, 0 is no effect, 13 to 15 days
How it was run: as §2

[10] = test system: morningglory (Ipomoea coccinea); assay: Test B pre-/postemergence plant response; details: for Morningglory plant response rating (0 to 100 scale): 62 g ai/ha, 0 is no effect, 13 to 15 days
How it was run: as §2

[11] = test system: pigweed (Amaranthus retroflexus); assay: Test B pre-/postemergence plant response; details: for Pigweed plant response rating (0 to 100 scale): 62 g ai/ha, 0 is no effect, 13 to 15 days
How it was run: as §2

[12] = test system: wheat (Triticum aestivum); assay: Test B pre-/postemergence plant response; details: for Wheat plant response rating (0 to 100 scale): 62 g ai/ha, postemergence, 0 is no effect, 100 is complete control, 13 to 15 days; for Plant response rating, Wheat: Postemergence, scale 0 to 100 (0 no effect, 100 complete control)
How it was run: as §2

[13] = Postemergence, 125 g ai/ha, 0 to 100 scale where 0 is no effect and 100 is complete control
[14] = Postemergence, 500 g ai/ha, 0 to 100 scale, 0 = no effect, 100 = complete control, approx. ten days
[15] = Preemergence, 125 g ai/ha, 0 to 100 scale, 0 = no effect, 100 = complete control
[16] = Preemergence, 500 g ai/ha, visual injury, 0 to 100 scale (0 no effect, 100 complete control), approx. ten days
[17] = 31 g ai/ha, postemergence, scale 0 to 100, 0 is no effect, 100 is complete control
[18] = postemergence, 100 is complete control
[19] = Postemergence, 125 g ai/ha, scale 0 to 100 (0 no effect, 100 complete control)
[20] = Postemergence, 250 g ai/ha, scale 0 to 100 (0 no effect, 100 complete control)

## O=C1CCCC(O)=C1C(=O)c1cnc(-c2ccsc2)n(CC2CCCO2)c1=O (centres unmarked) [Compound 98]
[1]; [13]
  Plant response rating, Crabgrass, Large: 90
[1]; [14]
  Plant response rating, Crabgrass, Large: 100
[1]; [15]
  Plant response rating, Crabgrass, Large: 90
[1]; [16]
  Plant response rating, Crabgrass, Large: 100
[2]; [13]
  Plant response rating, Morningglory: 100
[2]; [14]
  Plant response rating, Morningglory: 100
[2]; [15]
  Plant response rating, Morningglory: 70
[2]; [16]
  Plant response rating, Morningglory: 80
[3]; [13]
  Plant response rating, Velvetleaf: 100
[3]; [14]
  Plant response rating, Velvetleaf: 100
[3]; [15]
  Plant response rating, Velvetleaf: 90
[3]; [16]
  Plant response rating, Velvetleaf: 100
[4]; [13]
  Plant response rating, Wheat: 0
[4]; [14]
  Plant response rating, Wheat: 20
[4]; [15]
  Plant response rating, Wheat: 0
[4]; [16]
  Plant response rating, Wheat: 0
[5]; [17]
  Plant response rating, Cocklebur: 98
[5]; [18]
  Cocklebur plant response rating (0 to 100 scale): 100
[5]; [19]
  Plant response rating, Cocklebur: 100
[5]; [20]
  Plant response rating, Cocklebur: 100
[6]; [17]
  Plant response rating, Bromegrass, Downy: 5
[6]; [18]
  Bromegrass, Downy plant response rating (0 to 100 scale): 5
[6]; [19]
  Plant response rating, Bromegrass, Downy: 5
[6]; [20]
  Plant response rating, Bromegrass, Downy: 40
[7]; [17]
  Plant response rating, Foxtail, Giant: 65
[7]; [18]
  Foxtail, Giant plant response rating (0 to 100 scale): 75
[7]; [19]
  Plant response rating, Foxtail, Giant: 85
[7]; [20]
  Plant response rating, Foxtail, Giant: 85
[8]; [17]
  Plant response rating, Goosegrass: 60
[8]; [18]
  Goosegrass plant response rating (0 to 100 scale): 75
[8]; [19]
  Plant response rating, Goosegrass: 80
[8]; [20]
  Plant response rating, Goosegrass: 90
[9]; [17]
  Plant response rating, Foxtail, Green: 30
[9]; [18]
  Foxtail, Green plant response rating (0 to 100 scale): 85
[9]; [19]
  Plant response rating, Foxtail, Green: 85
[9]; [20]
  Plant response rating, Foxtail, Green: 95
Kochia (Kochia scoparia); [17]
  Plant response rating, Kochia: 65
Kochia (Kochia scoparia); [18]
  Kochia plant response rating (0 to 100 scale): 70
Kochia (Kochia scoparia); [19]
  Plant response rating, Kochia: 80
Kochia (Kochia scoparia); [20]
  Plant response rating, Kochia: 98
[10]; [17]
  Plant response rating, Morningglory: 70
[10]; [18]
  Morningglory plant response rating (0 to 100 scale): 85
[10]; [19]
  Plant response rating, Morningglory: 100
[10]; [20]
  Plant response rating, Morningglory: 100
[11]; [17]
  Plant response rating, Pigweed: 100
[11]; [18]
  Pigweed plant response rating (0 to 100 scale): 100
[11]; [19]
  Plant response rating, Pigweed: 100
[11]; [20]
  Plant response rating, Pigweed: 100
[12]
  Wheat plant response rating (0 to 100 scale): 5
[12]; 125 g ai/ha
  Plant response rating, Wheat: 5
[12]; 250 g ai/ha
  Plant response rating, Wheat: 20

## O=C1CCCC(O)=C1C(=O)c1cnc(-c2ccsc2)n(C2CCCCC2)c1=O [Compound 99]
[1]; [13]
  Plant response rating, Crabgrass, Large: 90
[1]; [14]
  Plant response rating, Crabgrass, Large: 100
[1]; [15]
  Plant response rating, Crabgrass, Large: 60
[1]; [16]
  Plant response rating, Crabgrass, Large: 100
[2]; [13]
  Plant response rating, Morningglory: 100
[2]; [14]
  Plant response rating, Morningglory: 100
[2]; [16]
  Plant response rating, Morningglory: 80
[3]; [13]
  Plant response rating, Velvetleaf: 100
[3]; [14]
  Plant response rating, Velvetleaf: 100
[3]; [15]
  Plant response rating, Velvetleaf: 80
[3]; [16]
  Plant response rating, Velvetleaf: 100
[4]; [13]
  Plant response rating, Wheat: 0
[4]; [14]
  Plant response rating, Wheat: 0
[4]; [15]
  Plant response rating, Wheat: 0
[4]; [16]
  Plant response rating, Wheat: 0
[5]; [17]
  Plant response rating, Cocklebur: 95
[5]; [18]
  Cocklebur plant response rating (0 to 100 scale): 100
[5]; [19]
  Plant response rating, Cocklebur: 100
[5]; [20]
  Plant response rating, Cocklebur: 100
[6]; [17]
  Plant response rating, Bromegrass, Downy: 5
[6]; [18]
  Bromegrass, Downy plant response rating (0 to 100 scale): 5
[6]; [19]
  Plant response rating, Bromegrass, Downy: 25
[6]; [20]
  Plant response rating, Bromegrass, Downy: 25
[7]; [17]
  Plant response rating, Foxtail, Giant: 75
[7]; [18]
  Foxtail, Giant plant response rating (0 to 100 scale): 80
[7]; [19]
  Plant response rating, Foxtail, Giant: 95
[7]; [20]
  Plant response rating, Foxtail, Giant: 95
[8]; [17]
  Plant response rating, Goosegrass: 75
[8]; [18]
  Goosegrass plant response rating (0 to 100 scale): 75
[8]; [19]
  Plant response rating, Goosegrass: 75
[8]; [20]
  Plant response rating, Goosegrass: 80
[9]; [17]
  Plant response rating, Foxtail, Green: 50
[9]; [18]
  Foxtail, Green plant response rating (0 to 100 scale): 90
[9]; [19]
  Plant response rating, Foxtail, Green: 95
[9]; [20]
  Plant response rating, Foxtail, Green: 98
Kochia (Kochia scoparia); [17]
  Plant response rating, Kochia: 80
Kochia (Kochia scoparia); [18]
  Kochia plant response rating (0 to 100 scale): 80
Kochia (Kochia scoparia); [19]
  Plant response rating, Kochia: 100
Kochia (Kochia scoparia); [20]
  Plant response rating, Kochia: 100
[10]; [17]
  Plant response rating, Morningglory: 100
[10]; [18]
  Morningglory plant response rating (0 to 100 scale): 100
[10]; [19]
  Plant response rating, Morningglory: 100
[10]; [20]
  Plant response rating, Morningglory: 100
[11]; [17]
  Plant response rating, Pigweed: 100
[11]; [18]
  Pigweed plant response rating (0 to 100 scale): 100
[11]; [19]
  Plant response rating, Pigweed: 100
[11]; [20]
  Plant response rating, Pigweed: 100
[12]
  Wheat plant response rating (0 to 100 scale): 5
[12]; 125 g ai/ha
  Plant response rating, Wheat: 5
[12]; 250 g ai/ha
  Plant response rating, Wheat: 5
